From PubChem BioAssay AID1259408 (Genetic Toxicology Data Bank (GENE-TOX), 2018) come the findings set out here.

This data set deals with GENE-TOX genotoxicity assays, various organisms and cells. Nature of the data set: GENE-TOX mutagenicity studies. The note with it: for call: Assay Type: In vivo carcinogenicity studies.
Where [1] appears, read: Species/Cell Type: Nonhuman, Assay Code: CCG+L, Evaluation Type: Evaluation A (Pre-1980).
Where [2] appears, read: Species/Cell Type: Nonhuman, Assay Type: Sister-chromatid exchange (SCE) in vitro, Assay Code: SC2+D*, Activation: With metabolic activation, Dose Response: With dose response, Evaluation Type: Evaluation B (Post-1980).
[3] abbreviates: Species/Cell Type: Saccharomyces cerevisiae, Assay Type: Mitotic recombination or gene conversion, Assay Code: YEH-, Evaluation Type: Evaluation A (Pre-1980).
The mark [4] stands for this setting: Species/Cell Type: Salmonella typhimurium (one or more of the five standard strains: TA98, TA100, TA1535, TA1537, and TA1538), Assay Type: Histidine reverse gene mutation, Ames assay, Assay Code: SALT, Evaluation Type: Evaluation A (Pre-1980).
Where [5] appears, read: Species/Cell Type: Neurospora crassa, Assay Type: Reverse gene mutation, Assay Code: NER+, Evaluation Type: Evaluation A (Pre-1980).
Setting [6] is: Species/Cell Type: Nonhuman, Assay Code: CCG+, Evaluation Type: Evaluation A (Pre-1980).
Setting [7] is: Species/Cell Type: Salmonella typhimurium (one or more of the five standard strains: TA98, TA100, TA1535, TA1537, and TA1538), Assay Type: Histidine reverse gene mutation, Ames assay, Assay Code: SAL+*, Activation: With metabolic activation, Evaluation Type: Evaluation A (Pre-1980).

Activity calls are given as the source filed them. The rule behind the calls is not given here.

In the case of `COc1cc2c(c3oc(=O)c4c(c13)CCC4=O)[C@@H]1CCO[C@@H]1O2`, the mutagenic call by setting is: (Species/Cell Type: Bacillus subtilis (H17 vs M45), Assay Type: Rec-assay, spot test, DNA effects (bacterial DNA repair), Assay Code: REWT, Evaluation Type: Evaluation A (Pre-1980)) “no conclusion”; (Species/Cell Type: Chinese hamster lung (V79) cells, Assay Type: Forward gene mutation at the HPRT or ouabain locus, Assay Code: V79+, Evaluation Type: Evaluation A (Pre-1980)) “active; positive”; (Species/Cell Type: Escherichia coli polA (W3110 vs P3478), Assay Type: Rec-assay, DNA effects (bacterial DNA repair), Assay Code: RE2-, Evaluation Type: Evaluation A (Pre-1980)) “inactive; negative”; (Species/Cell Type: Escherichia coli polA (W3119 vs P3478), Assay Type: Rec-assay, DNA effects (bacterial DNA repair), Assay Code: RE1T, Evaluation Type: Evaluation A (Pre-1980)) “no conclusion”; (Species/Cell Type: Human diploid fibroblasts, Assay Type: Unscheduled DNA synthesis (UDS) in vitro, DNA effects, Assay Code: UDH-*, Activation: With metabolic activation, Evaluation Type: Evaluation A (Pre-1980)) “inactive; negative”; under setting [2], “active; positive”. Also, the mutagenic call (Species/Cell Type: Rat primary hepatocytes, Assay Type: Unscheduled DNA synthesis (UDS) in vitro, DNA effects, Assay Code: UDP-, Evaluation Type: Evaluation A (Pre-1980)) is “inactive; negative”; the mutagenic call under setting [3] was “inactive; negative”; the mutagenic call under setting [4] is given as “no conclusion”; the mutagenic call (Species/Cell Type: Salmonella typhimurium, Assay Type: Forward and reverse gene mutation, host-mediated assay, Assay Code: HMA-, Evaluation Type: Evaluation A (Pre-1980)) is “inactive; negative”; the mutagenic call (Species/Cell Type: Syrian hamster embryo (SHE) cells, Assay Type: Cell transformation, clonal assay, Assay Code: CTC+, Evaluation Type: Evaluation A (Pre-1980)) was “active; positive”. The call under setting [1] is “active; positive”.

Turning to `O=[N+]([O-])c1ccc(/C=C/c2nccn2Cc2ccccc2)o1`, under setting [5], the mutagenic call was “active; positive”.

Turning to `Nc1ccc(-c2ccc(N)c(Cl)c2)cc1Cl`, the mutagenic call (Species/Cell Type: Fischer rat embryo (RLV/1706) cells, Assay Type: Cell transformation, viral enhanced, Assay Code: CTR+, Evaluation Type: Evaluation A (Pre-1980)) was “active; positive”; the mutagenic call (Species/Cell Type: Human diploid fibroblasts, Assay Type: Unscheduled DNA synthesis (UDS) in vitro, DNA effects, Assay Code: UDHT, Evaluation Type: Evaluation A (Pre-1980)) was “no conclusion”; the mutagenic call (Species/Cell Type: Mammalian polychromatic erythrocytes, Assay Type: Micronucleus test, chromosome aberrations, Assay Code: MNT+, Evaluation Type: Evaluation B (Post-1980)) was “active; positive”; the mutagenic call under setting [7] is “active; positive”; the mutagenic call (Species/Cell Type: Salmonella typhimurium (one or more of the five standard strains: TA98, TA100, TA1535, TA1537, and TA1538), Assay Type: Histidine reverse gene mutation, Ames assay, Assay Code: SAL+, Evaluation Type: Evaluation A (Pre-1980)) was “active; positive”; the mutagenic call (Species/Cell Type: Syrian hamster embryo (SA7/SHE) cells, Assay Type: Cell transformation, viral enhanced, Assay Code: CT7+, Evaluation Type: Evaluation A (Pre-1980)) was “active; positive”. Besides, the call under setting [6] was “active; positive”.

`COc1cc2c(c3ccc4ccccc4c13)CC=C2C`: the mutagenic call under setting [7] was “active; positive”.

Regarding `CC1OC1C` (centres undefined), the mutagenic call under setting [5] is “active; positive”.

Take `NC[C@H]1O[C@H](O[C@H]2[C@H](O)[C@@H](O[C@H]3O[C@H](CO)[C@@H](O)[C@H](N)[C@H]3O)[C@H](N)C[C@@H]2N)[C@H](O)[C@@H](O)[C@@H]1O`: the mutagenic call (Species/Cell Type: Bacillus subtilis (H17 vs M45T), Assay Type: Rec-assay, spot test, DNA effects (bacterial DNA repair), Assay Code: REXT, Evaluation Type: Evaluation A (Pre-1980)) is on record as “no conclusion”; the mutagenic call (Species/Cell Type: Escherichia coli polA (W3119 vs P3478), Assay Type: Rec-assay, DNA effects (bacterial DNA repair), Assay Code: RE1-, Evaluation Type: Evaluation A (Pre-1980)) was “inactive; negative”; the mutagenic call under setting [3] was “inactive; negative”.

Regarding `Nc1cc2c(cn1)[nH]c1ccccc12`, the mutagenic call reads like this: (Species/Cell Type: Human, Assay Type: Sister-chromatid exchange (SCE) in vitro, Assay Code: SC1+, Evaluation Type: Evaluation B (Post-1980)) “active; positive”; (Species/Cell Type: Nonhuman, Assay Type: Sister-chromatid exchange (SCE) in vitro, Assay Code: SC2+D, Dose Response: With dose response, Evaluation Type: Evaluation B (Post-1980)) “active; positive”.

As for `Oc1ccc(N=Nc2ccccc2)cc1`, the mutagenic call (Species/Cell Type: Salmonella typhimurium (one or more of the five standard strains: TA98, TA100, TA1535, TA1537, and TA1538), Assay Type: Histidine reverse gene mutation, Ames assay, Assay Code: SAL-, Evaluation Type: Evaluation A (Pre-1980)) is “inactive; negative”.

Regarding `Cc1nc(N)cc2[nH]c3ccccc3c12`, the mutagenic call is, setting by setting: (Species/Cell Type: Chinese hamster ovary (CHO) cells, Assay Type: Forward gene mutation at the HPRT locus, Assay Code: CHO+*, Activation: With metabolic activation, Evaluation Type: Evaluation B (Post-1980)) “active; positive”; (Species/Cell Type: Human lymphocytes, Assay Type: Sister-chromatid exchange (SCE) in vitro, Assay Code: SCL+D, Dose Response: With dose response, Evaluation Type: Evaluation B (Post-1980)) “active; positive”; (Species/Cell Type: Human, Assay Type: Sister-chromatid exchange (SCE) in vitro, Assay Code: SC1+D, Dose Response: With dose response, Evaluation Type: Evaluation B (Post-1980)) “active; positive”; under setting [2], “active; positive”; (Species/Cell Type: Nonhuman, Assay Type: Sister-chromatid exchange (SCE) in vivo, Assay Code: SC3+D, Dose Response: With dose response, Evaluation Type: Evaluation B (Post-1980)) “active; positive”; under setting [7], “active; positive”. Under setting [6], the call is “active; positive”.

With `CCN(CCNc1ccc(CO)c2sc3ccccc3c(=O)c12)CC(C)(C)O`, where the note is “Species/Cell Type: Mouse lymphoma (L5178Y) cells, Assay Type: Forward gene mutation at the thymidine kinase (TK) locus, chromosome aberrations, Assay Code: L51+, Evaluation Type: Evaluation A (Pre-1980)”, the mutagenic call was “active; positive”.

Take `CCCCNCCCCO`: the mutagenic call is “inactive; negative” (Species/Cell Type: Nonhuman, Assay Type: Chromosome aberrations in vitro, Assay Code: CY&-, Evaluation Type: Evaluation A (Pre-1980)) and “no conclusion” (Species/Cell Type: Nonhuman, Assay Type: Sister-chromatid exchange (SCE) in vitro, Assay Code: SC2T, Evaluation Type: Evaluation A (Pre-1980)).

As for `C[C@H](CC[C@H](C)OS(C)(=O)=O)OS(C)(=O)=O`, the mutagenic call (Species/Cell Type: Rodents, Sex: Male, Assay Type: Dominant lethal test, Assay Code: DLT+, Evaluation Type: Evaluation A (Pre-1980)) was “active; positive”.

Take `C[C@]12CC[C@H]3[C@@H](CCC4=CC(=O)CC[C@@]43C)[C@@H]1CC[C@@H]2O`: the mutagenic call is, setting by setting: (Species/Cell Type: Human, Sex: Male, Assay Type: Sperm morphology, Assay Code: SPH+, Evaluation Type: Evaluation A (Pre-1980)) “active; positive”; (Species/Cell Type: Mouse, Sex: Male, Assay Type: Sperm morphology, Assay Code: SPI-, Evaluation Type: Evaluation A (Pre-1980)) “inactive; negative”. Besides, the call under setting [6] is “active; positive”.

`CCC(Br)(CC)C(=O)NC(N)=O`: for the setting “Species/Cell Type: Nonhuman, Assay Code: CCG-, Evaluation Type: Evaluation A (Pre-1980)”, the call was “inactive; negative”.

On to `CO[C@@H]1[C@H](C)O[C@@H](O[C@@H]2C[C@H](Oc3cc(O)c4c(O)c5c(cc4c3)C[C@@H]([C@H](OC)C(=O)[C@@H](O)[C@@H](C)O)[C@H](O[C@@H]3C[C@H](OC4C[C@H](O)[C@@H](O)[C@H](C)O4)[C@@H](O)[C@H](C)O3)C5=O)O[C@H](C)[C@@H]2O)C[C@@H]1O` (some centres undefined), for which the mutagenic call (Species/Cell Type: Chinese hamster ovary (CHO) cells, Assay Type: Forward gene mutation at the HPRT locus, Assay Code: CHO+, Evaluation Type: Evaluation B (Post-1980)) is “active; positive”.

As to `Cc1ccc(O)cc1`, the mutagenic call is “no conclusion” (Species/Cell Type: Allium cepa, Assay Type: Chromosome aberrations, Assay Code: ALCT, Evaluation Type: Evaluation A (Pre-1980)); “no conclusion” (Species/Cell Type: Human lymphocytes, Assay Type: Sister-chromatid exchange (SCE) in vitro, Assay Code: SCLT, Evaluation Type: Evaluation B (Post-1980)); “inactive; negative” (Species/Cell Type: Human, Assay Type: Sister-chromatid exchange (SCE) in vitro, Assay Code: SC1-, Evaluation Type: Evaluation B (Post-1980)); “no conclusion” (Species/Cell Type: Nonhuman, Assay Type: Sister-chromatid exchange (SCE) in vivo, Assay Code: SC3T, Evaluation Type: Evaluation B (Post-1980)).

As for `C=C(Cl)Cl`, the mutagenic call is “inactive; negative” (Species/Cell Type: Mammalian polychromatic erythrocytes, Assay Type: Micronucleus test, chromosome aberrations, Assay Code: MNT-, Evaluation Type: Evaluation B (Post-1980)); “inactive; negative” (Species/Cell Type: Rodents, Sex: Male, Assay Type: Dominant lethal test, Assay Code: DLT-, Evaluation Type: Evaluation A (Pre-1980)); “active; positive” under setting [7]; “active; positive” (Species/Cell Type: Tradescantia species, Assay Type: Gene mutation, Assay Code: TRM+D, Dose Response: With dose response, Evaluation Type: Evaluation A (Pre-1980)). Under setting [1], the call is “active; positive”.

With `CC1(C)N=C(N)N=C(N)N1OCCCOc1cc(Cl)c(Cl)cc1Cl`, under setting [4], the mutagenic call is given as “no conclusion”.
